No end group written: not given here.
Legend:
HSV-1 (KOS) gL86 = assay: HSV-1 entry into HeLa cells (ONPG and X-gal); assay type: cell-based, herpes simplex virus type-1; conditions: for blocking of HSV-1 entry/infection: HeLa cells, 60 min pre-treatment, 25 pfu/cell, 6 hr
Experimental: HSV-1 entry was assayed as described in Shukla et al., Cell 99:13-22 (1999). CHO-K1 cells were grown in 6-well plates to subconfluence and then transfected with 2.5 μg of expression plasmids for gD receptors nectin-1 (pBG38), HVEM (pBec10), 3-OST-3 isoform (pDS43), or pCDNA3.1 (empty vector) using LipofectAMINE (Gibco/BRL). At 16 h post-transfection, the cells were replated into 96-well dishes for pre-incubation with peptides at different concentrations for 60 min at room temperature. In parallel, natural target cells (HeLa, CF, and RPE) were also pre-treated with the peptides for the same duration. In all cases, unbound peptides were removed after washing 3× with PBS. Thereafter, cells were infected for 6 h with a recombinant virus, HSV-1 (KOS) gL86, at multiple plaque forming units (PFUs) and β-galactosidase assays were performed using either a soluble substrate o-nitrophenyl-β-D-galactopyranoside (ONPG at 3.0 mg/ml; ImmunoPure, Pierce) or X-gal (Sigma). For the soluble substrate, the enzymatic activity was measured at 410 nm using a micro-plate reader (Spectra Max 190, Molecular Devices, Sunnyvale, Calif.). For the X-gal assay, cells were fixed (2% formaldehyde and 0.2% glutaraldehyde) and permeabilized (2 mM MgCl2, 0.01% deoxycholate, and 0.02% nonidet NP-40 (Sigma)). 1 ml of β-galactosidase reagent (1.0 mg/ml X-gal in ferricyanide buffer) was added to each well and incubated at 37° C. for 90 min before the cells were examined using bright field microscopy under the 20× objectives of the inverted microscope (Zeiss Axiovert 100 M).
The ability of the G1 and G2 peptides to block HSV-1 entry into natural target cells (HeLa and primary cultures of human CF) was compared. A similar dosage response curve was generated when HeLa (FIG. 2A) or CF (FIG. 2B) were pre-treated with G1 or G2 peptides during HSV-1 entry. […] HeLa cells (FIG. 2A) and primary cultures of human corneal fibroblasts (CF) (FIG. 2B) were tested. Cells in 96-well plates were pre-treated for 60 min with indicated mM concentrations of G1, G2, or Cp peptides. Mock-treated cells (abbreviated as C) served as a control. Pretreated cells were infected with a β galactosidase-expressing recombinant virus HSV-1 (KOS) HSV-1 gL86 (25 pfu/cell) for 6 hr. Viral entry was quantitated as described above in reference to FIG. 1. Confirmation of HSV-1 entry blocking activity of G1, G2, and control (Cp) peptides on a per cell basis was obtained after cells were infected as described above followed by X-gal (1.0 mg/ml) staining (Right panels), which yields an insoluble blue product upon hydrolysis by β-galactosidase expressed from the input viral genomes. […] Microscopy was performed using a 20× objective of Zeiss Axiovert 100.

HSV-1 (KOS) = assay: Mouse cornea model of HSV-1 infection (immunohistochemistry); assay type: in vivo, BALB/c mice
Experimental: BALB/c mice with pre-scarred corneal upper surface were treated with PBS-based eye drops containing 0.5 mM G1, G2, or control peptide followed by inoculation of HSV-1 (KOS). Mice were sacrificed after 4 and 7 days for HSV-1 detection. Immunohistochemistry was performed as described by Akhtar et al., Invest. Ophthalmol. Vis. Sci. 49:4026-4035 (2008). Briefly, tissue sections were hydrated with distilled water and antigen retrieval was performed using DAKO Target Retrieval Solution 10× concentrate (DAKO, Carpinteria, Calif.). Nonspecific staining was blocked using H2O2 solution for 10 minutes followed by a protein block for 10 minutes. Sections were incubated with HSV-1 gD specific antiserum (1:100 dilution) at room temperature for 1 hr followed by a 40-minute incubation with the secondary antibody (HRP-conjugated goat anti-rabbit IgG, 1:500; Sigma, St. Louis, Mo.). Expression of gD was detected using the DAKO Envision^+ kit. Confocal and differential interference contrast (DIC) image acquisition was conducted with an SB2-AOBS confocal microscope (Leica, Solms, Germany).
Immunohistochemistry was used to locate HSV-1 glycoprotein D (gD) expression in the cornea pre-treated with either a control peptide, G1 or G2 followed by HSV-1 infection. 100 μl of G1, G2, or Cp (control) peptide at 0.5 mM concentration was poured into the mouse cornea as a prophylactic “eye drop” followed by an infection with HSV-1 (KOS) at 10^6 PFU. At 4 or 7 days post infection, immunohistochemistry was performed using anti-HSV-1 gD polyclonal antibody.

[1] = system: β-galactosidase expressing CMV; assay: CMV entry assay in RPE cells; assay type: cell-based, cytomegalovirus; conditions: 0.5 mM, 60 min pre-treatment, 8 h, ONPG and X-gal
Experimental: Natural target RPE cells were incubated with G1 and G2 peptides for 60 min at room temperature before the cells were infected with β-galactosidase expressing CMV (ATCC) for 8 h. β-galactosidase assays were performed using either a soluble substrate o-nitrophenyl-β-D-galactopyranoside (ONPG at 3.0 mg/ml; ImmunoPure, Pierce) or X-gal (Sigma).
In order to detect each peptide's effect on viral entry, Lac Z-expressing reporter CMV and GFP-expressing HHV-8 viruses (Viera et al., J. Virol. 72:5182-5188 (2000)) and their natural target cells were employed for entry measurements. […] A monolayer of cultured RPE cells grown in a 96 well plate were pre-treated with G1, G2, or control peptide (Cp) at 0.5 mM concentration (FIG. 5A). A mock-treated population of RPE cells served as positive control (abbreviated as C). After 60 min of incubation at room temperature, the cells were infected with β-galactosidase expressing CMV reporter virus. After 8 h, viral entry was measured as described for FIG. 1.
The effect of CMV entry blocking activity of G1, G2 or Cp peptide for individual RPE cells was determined by X-gal staining, which yields an insoluble blue product upon hydrolysis by β-galactosidase (FIG. 5B). Individual cells were examined using a Zeiss Axiovert 100 microscope at 20× magnification. Infected cells turn blue. […]

[2] = 100 μl eye drop at 0.5 mM before 10^6 PFU, 4 and 7 days post infection

Row | Sequence | blocking of HSV-1 entry/infection (HSV-1 (KOS) gL86) | HSV-1 gD staining in cornea (HSV-1 (KOS); 0.5 mM eye drop, day 4) | corneal inflammation (HSV-1 (KOS); 0.5 mM eye drop, day 4) | HSV-1 staining in cornea (HSV-1 (KOS); 0.5 mM eye drop, day 7) | state of corneal epithelium (HSV-1 (KOS); 0.5 mM eye drop, day 7) | blocking of CMV entry [1] | HSV-1 protein (gD) expression in cornea (HSV-1 (KOS); [2]) | state of corneal epithelium (HSV-1 (KOS); [2]) | effectiveness in blocking entry compared with G1 (HSV-1 (KOS) gL86; in virtually all cases (FIGS. 1 and 2))
1 | RVCGSIGKEVLG [Cp, reference compound] | no effect on HSV-1 entry | significant staining for HSV-1 gD | severe chronic inflammation | gone | damage to the corneal epithelium was still evident | – | – | – | –
2 | LRSRTKIIRIRH [G1, LRSRTKIIRIRH] | effective in blocking infection of individual cells | – | – | – | – | no effect on viral entry | virtually no HSV-1 protein expression was detected | epithelium remained intact | –
3 | MPRRRRIRRRQK [G2, MPRRRRIRRRQK] | effective in blocking infection of individual cells | – | – | – | – | effective in blocking CMV entry | virtually no HSV-1 protein expression was detected | epithelium remained intact | slightly more effective in blocking entry than G1

— patent US9464113B2, “Anti-heparan sulfate peptides that block herpes simplex virus infection in vivo” (The Board of Trustees of the University of Illinois, priority 2010, dated 2016)
